From ChEMBL document CHEMBL5649169 (ChemMedChem, 2018)

Assays:
Ephrin type-B receptor 3 = Ephrin type-B receptor 3 (Homo sapiens, UniProt P54753); assay: Inhibition of Nano Luc-fused full length C-terminal EPHB3 (unknown origin) expressed in HEK293T cells using NanoGlo as substrate incubated for 2 hrs in presence of tracer by NanoBRET assay; format: cell-based
[1] = target: Proteasomal ubiquitin receptor ADRM1 (Homo sapiens) (UniProt Q16186); also: assay method not described here
[2] = target: AP-3 complex subunit sigma-1 (Homo sapiens) (UniProt Q92572); also: assay method not described here
[3] = target: Coatomer subunit delta (Homo sapiens) (UniProt P48444); also: assay method not described here
[4] = target: Serine-protein kinase ATM (Homo sapiens) (UniProt Q13315); also: assay method not described here
[5] = target: ATP synthase F(0) complex subunit f, mitochondrial (Homo sapiens) (UniProt P56134); also: assay method not described here
[6] = target: Coatomer subunit beta' (Homo sapiens) (UniProt P35606); also: assay method not described here
[7] = target: Neuronal migration protein doublecortin (Homo sapiens) (UniProt O43602); also: assay method not described here
[8] = target: ATP-dependent RNA helicase DDX3X (Homo sapiens) (UniProt O00571); also: assay method not described here
[9] = target: DnaJ homolog subfamily C member 10 (Homo sapiens) (UniProt Q8IXB1); also: assay method not described here
[10] = target: 3-beta-hydroxysteroid-Delta(8),Delta(7)-isomerase (Homo sapiens) (UniProt Q15125); also: assay method not described here
[11] = target: Epidermal growth factor receptor (Homo sapiens) (UniProt P00533); also: assay method not described here
[12] = target: Eukaryotic translation initiation factor 4B (Homo sapiens) (UniProt P23588); also: assay method not described here
Erlin-1 (Homo sapiens) = Erlin-1 (Homo sapiens) (UniProt O75477); also: assay method not described here
[13] = target: Serine/threonine-protein kinase/endoribonuclease IRE2 (Homo sapiens) (UniProt Q76MJ5); also: assay method not described here
[14] = target: Fatty acid synthase (Homo sapiens) (UniProt P49327); also: assay method not described here
[15] = target: Protein Aster-A (Homo sapiens) (UniProt Q96CP6); also: assay method not described here
[16] = target: Glycogen synthase kinase-3 alpha (Homo sapiens) (UniProt P49840); also: assay method not described here
[17] = target: Heterogeneous nuclear ribonucleoprotein K (Homo sapiens) (UniProt P61978); also: assay method not described here
[18] = target: Heterogeneous nuclear ribonucleoprotein U-like protein 2 (Homo sapiens) (UniProt Q1KMD3); also: assay method not described here
[19] = target: ER lumen protein-retaining receptor 2 (Homo sapiens) (UniProt P33947); also: assay method not described here
[20] = target: Importin subunit alpha-1 (Homo sapiens) (UniProt P52292); also: assay method not described here
[21] = target: Galectin-3-binding protein (Homo sapiens) (UniProt Q08380); also: assay method not described here
[22] = target: Ubiquitin thioesterase OTUB1 (Homo sapiens) (UniProt Q96FW1); also: assay method not described here
[23] = target: Polyadenylate-binding protein-interacting protein 1 (Homo sapiens) (UniProt Q9H074); also: assay method not described here
[24] = target: Serine/threonine-protein kinase PAK 4 (Homo sapiens) (UniProt O96013); also: assay method not described here
[25] = target: Platelet-derived growth factor receptor beta (Homo sapiens) (UniProt P09619); also: assay method not described here
Homo sapiens [26] = species: Homo sapiens; also: assay method not described here
[27] = target: Serine/threonine-protein kinase N2 (Homo sapiens) (UniProt Q16513); also: assay method not described here
[28] = target: 5'-AMP-activated protein kinase catalytic subunit alpha-1 (Homo sapiens) (UniProt Q13131); also: assay method not described here
[29] = target: cAMP-dependent protein kinase catalytic subunit alpha (Homo sapiens) (UniProt P17612); also: assay method not described here
[30] = target: Pre-mRNA-processing factor 40 homolog A (Homo sapiens) (UniProt O75400); also: assay method not described here
[31] = target: Rab-like protein 3 (Homo sapiens) (UniProt Q5HYI8); also: assay method not described here
Homo sapiens [32] = species: Homo sapiens; remark: listed apart in the source; also: assay method not described here
[33] = target: Ribosomal protein S6 kinase alpha-1 (Homo sapiens) (UniProt Q15418); also: assay method not described here
[34] = target: Ribosomal protein S6 kinase alpha-6 (Homo sapiens) (UniProt Q9UK32); also: assay method not described here
[35] = target: Protein S100-A11 (Homo sapiens) (UniProt P31949); also: assay method not described here
[36] = target: Monocarboxylate transporter 1 (Homo sapiens) (UniProt P53985); also: assay method not described here
[37] = target: ADP/ATP translocase 3 (Homo sapiens) (UniProt P12236); also: assay method not described here
[38] = target: Large neutral amino acids transporter small subunit 1 (Homo sapiens) (UniProt Q01650); also: assay method not described here
[39] = target: Structural maintenance of chromosomes protein 2 (Homo sapiens) (UniProt O95347); also: assay method not described here
[40] = target: Spectrin beta chain, non-erythrocytic 1 (Homo sapiens) (UniProt Q01082); also: assay method not described here
[41] = target: Tubulin-specific chaperone D (Homo sapiens) (UniProt Q9BTW9); also: assay method not described here
[42] = target: TGF-beta receptor type-1 (Homo sapiens) (UniProt P36897); also: assay method not described here
[43] = target: THUMP domain-containing protein 1 (Homo sapiens) (UniProt Q9NXG2); also: assay method not described here
[44] = target: SUMO-conjugating enzyme UBC9 (Homo sapiens) (UniProt P63279); also: assay method not described here

Chain of Coatomer subunit delta (Homo sapiens) (P48444 whole entry): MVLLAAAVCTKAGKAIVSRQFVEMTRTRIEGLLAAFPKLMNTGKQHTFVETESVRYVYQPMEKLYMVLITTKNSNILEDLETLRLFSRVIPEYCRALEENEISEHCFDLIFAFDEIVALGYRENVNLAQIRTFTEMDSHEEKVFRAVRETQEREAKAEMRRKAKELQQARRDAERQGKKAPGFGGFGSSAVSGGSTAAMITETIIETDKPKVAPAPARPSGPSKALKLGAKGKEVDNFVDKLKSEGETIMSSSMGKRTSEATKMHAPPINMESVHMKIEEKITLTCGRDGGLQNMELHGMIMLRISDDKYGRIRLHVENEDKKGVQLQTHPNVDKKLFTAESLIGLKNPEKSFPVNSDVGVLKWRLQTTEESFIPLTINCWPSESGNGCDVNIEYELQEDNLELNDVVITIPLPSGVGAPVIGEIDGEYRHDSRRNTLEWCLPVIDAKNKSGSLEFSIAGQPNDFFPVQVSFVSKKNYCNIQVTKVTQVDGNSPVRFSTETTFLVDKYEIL
Chain of ER lumen protein-retaining receptor 2 (Homo sapiens) (P33947 whole entry): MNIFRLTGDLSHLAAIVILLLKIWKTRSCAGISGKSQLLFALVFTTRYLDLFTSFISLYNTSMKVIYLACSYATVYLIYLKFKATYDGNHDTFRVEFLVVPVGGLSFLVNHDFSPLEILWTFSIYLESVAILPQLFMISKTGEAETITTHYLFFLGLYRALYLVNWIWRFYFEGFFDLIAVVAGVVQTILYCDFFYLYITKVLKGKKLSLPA
Chain of ATP synthase F(0) complex subunit f, mitochondrial (Homo sapiens) (P56134 whole entry, one chain of several): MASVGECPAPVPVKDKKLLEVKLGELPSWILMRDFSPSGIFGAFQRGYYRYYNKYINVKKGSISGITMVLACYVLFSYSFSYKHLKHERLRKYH
Chain of Tubulin-specific chaperone D (Homo sapiens) (Q9BTW9 whole entry): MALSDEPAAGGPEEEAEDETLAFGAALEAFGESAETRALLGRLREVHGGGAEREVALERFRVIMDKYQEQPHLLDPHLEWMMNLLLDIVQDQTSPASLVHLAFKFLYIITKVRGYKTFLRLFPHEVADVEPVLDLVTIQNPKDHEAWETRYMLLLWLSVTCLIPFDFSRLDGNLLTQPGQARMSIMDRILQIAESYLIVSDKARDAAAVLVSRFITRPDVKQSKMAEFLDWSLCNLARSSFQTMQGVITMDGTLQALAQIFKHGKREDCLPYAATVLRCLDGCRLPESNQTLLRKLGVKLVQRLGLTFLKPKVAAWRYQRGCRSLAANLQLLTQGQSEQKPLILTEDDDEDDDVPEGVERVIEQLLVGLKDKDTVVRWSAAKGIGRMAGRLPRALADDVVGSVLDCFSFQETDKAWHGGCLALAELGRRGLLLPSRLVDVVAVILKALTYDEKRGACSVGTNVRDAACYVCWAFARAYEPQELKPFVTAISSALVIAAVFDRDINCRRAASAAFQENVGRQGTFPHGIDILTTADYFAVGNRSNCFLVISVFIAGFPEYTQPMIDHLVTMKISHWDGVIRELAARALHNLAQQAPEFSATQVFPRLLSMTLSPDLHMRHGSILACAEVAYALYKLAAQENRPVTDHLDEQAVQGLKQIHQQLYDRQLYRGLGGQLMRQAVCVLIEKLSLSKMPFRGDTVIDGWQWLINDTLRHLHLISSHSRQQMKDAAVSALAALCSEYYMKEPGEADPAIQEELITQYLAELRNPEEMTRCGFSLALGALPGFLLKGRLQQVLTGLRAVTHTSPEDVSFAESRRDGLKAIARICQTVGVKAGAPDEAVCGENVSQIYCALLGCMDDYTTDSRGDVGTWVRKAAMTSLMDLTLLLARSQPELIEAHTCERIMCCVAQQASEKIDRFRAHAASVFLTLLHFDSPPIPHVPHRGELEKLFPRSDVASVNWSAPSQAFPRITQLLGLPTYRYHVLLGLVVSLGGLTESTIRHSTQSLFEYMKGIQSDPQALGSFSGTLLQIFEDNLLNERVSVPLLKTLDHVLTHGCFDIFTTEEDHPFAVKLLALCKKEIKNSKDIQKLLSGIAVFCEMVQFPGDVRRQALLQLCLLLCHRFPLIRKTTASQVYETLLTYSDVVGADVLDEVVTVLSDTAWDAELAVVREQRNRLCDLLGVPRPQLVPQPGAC
Chain of Coatomer subunit beta' (Homo sapiens) (P35606 whole entry): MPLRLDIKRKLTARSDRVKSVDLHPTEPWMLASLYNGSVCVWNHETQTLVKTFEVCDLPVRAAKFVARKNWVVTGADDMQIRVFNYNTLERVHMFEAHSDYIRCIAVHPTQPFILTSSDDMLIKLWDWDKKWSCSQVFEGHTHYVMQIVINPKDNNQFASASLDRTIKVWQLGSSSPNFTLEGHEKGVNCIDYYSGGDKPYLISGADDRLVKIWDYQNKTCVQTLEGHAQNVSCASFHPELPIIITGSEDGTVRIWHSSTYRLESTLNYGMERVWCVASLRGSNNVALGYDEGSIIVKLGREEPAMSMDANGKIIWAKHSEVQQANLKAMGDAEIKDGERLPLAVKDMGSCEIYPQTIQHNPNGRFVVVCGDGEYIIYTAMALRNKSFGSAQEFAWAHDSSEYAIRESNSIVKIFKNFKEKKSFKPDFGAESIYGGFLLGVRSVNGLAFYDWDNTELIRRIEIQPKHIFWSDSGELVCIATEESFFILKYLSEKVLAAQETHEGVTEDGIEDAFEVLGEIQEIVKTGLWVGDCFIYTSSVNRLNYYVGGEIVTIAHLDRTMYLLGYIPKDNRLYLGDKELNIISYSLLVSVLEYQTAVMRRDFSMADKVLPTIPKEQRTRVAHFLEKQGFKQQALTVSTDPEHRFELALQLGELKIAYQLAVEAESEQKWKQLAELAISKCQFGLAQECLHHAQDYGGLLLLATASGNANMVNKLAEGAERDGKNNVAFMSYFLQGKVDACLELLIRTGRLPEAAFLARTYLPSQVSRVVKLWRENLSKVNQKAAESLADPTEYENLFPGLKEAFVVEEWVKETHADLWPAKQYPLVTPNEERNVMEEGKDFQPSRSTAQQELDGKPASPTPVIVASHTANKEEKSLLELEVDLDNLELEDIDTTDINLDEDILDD
Chain of Ribosomal protein S6 kinase alpha-1 (Homo sapiens) (Q15418 whole entry): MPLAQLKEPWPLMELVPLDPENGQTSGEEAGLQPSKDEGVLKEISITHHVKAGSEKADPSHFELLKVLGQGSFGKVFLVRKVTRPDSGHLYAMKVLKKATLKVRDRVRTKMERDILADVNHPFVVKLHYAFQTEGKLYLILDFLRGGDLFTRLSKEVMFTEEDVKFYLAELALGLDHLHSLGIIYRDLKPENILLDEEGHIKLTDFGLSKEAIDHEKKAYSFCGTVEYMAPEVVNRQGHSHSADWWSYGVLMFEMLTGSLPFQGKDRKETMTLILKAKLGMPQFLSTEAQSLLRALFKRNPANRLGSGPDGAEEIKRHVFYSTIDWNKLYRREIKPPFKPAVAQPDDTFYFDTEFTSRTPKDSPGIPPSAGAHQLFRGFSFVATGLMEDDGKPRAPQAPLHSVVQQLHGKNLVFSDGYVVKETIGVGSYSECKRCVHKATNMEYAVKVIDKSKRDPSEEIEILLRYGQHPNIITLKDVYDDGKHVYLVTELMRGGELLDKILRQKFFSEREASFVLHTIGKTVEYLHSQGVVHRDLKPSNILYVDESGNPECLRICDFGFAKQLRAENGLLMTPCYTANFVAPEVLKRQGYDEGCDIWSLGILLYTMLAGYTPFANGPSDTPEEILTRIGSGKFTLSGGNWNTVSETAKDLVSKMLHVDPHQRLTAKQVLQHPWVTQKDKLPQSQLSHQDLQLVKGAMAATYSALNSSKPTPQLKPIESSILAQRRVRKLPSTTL
Chain of Rab-like protein 3 (Homo sapiens) (Q5HYI8 whole entry): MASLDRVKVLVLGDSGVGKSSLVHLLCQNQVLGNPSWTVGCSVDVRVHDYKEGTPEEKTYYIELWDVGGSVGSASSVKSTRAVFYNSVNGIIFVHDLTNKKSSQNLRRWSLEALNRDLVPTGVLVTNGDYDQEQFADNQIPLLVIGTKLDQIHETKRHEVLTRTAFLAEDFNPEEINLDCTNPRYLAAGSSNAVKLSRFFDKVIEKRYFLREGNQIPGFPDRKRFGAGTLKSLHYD
Chain of Erlin-1 (Homo sapiens) (O75477 whole entry): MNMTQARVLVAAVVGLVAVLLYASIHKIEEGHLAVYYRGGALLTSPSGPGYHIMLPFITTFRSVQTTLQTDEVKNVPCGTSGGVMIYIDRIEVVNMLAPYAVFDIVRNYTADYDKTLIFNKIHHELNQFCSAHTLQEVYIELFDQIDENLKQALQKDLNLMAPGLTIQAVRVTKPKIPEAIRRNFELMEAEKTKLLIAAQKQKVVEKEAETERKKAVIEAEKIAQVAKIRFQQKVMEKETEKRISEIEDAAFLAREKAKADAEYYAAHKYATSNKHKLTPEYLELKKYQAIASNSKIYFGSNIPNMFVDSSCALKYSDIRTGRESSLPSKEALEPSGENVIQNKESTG
Chain of TGF-beta receptor type-1 (Homo sapiens) (P36897 whole entry, the tested form may be a part): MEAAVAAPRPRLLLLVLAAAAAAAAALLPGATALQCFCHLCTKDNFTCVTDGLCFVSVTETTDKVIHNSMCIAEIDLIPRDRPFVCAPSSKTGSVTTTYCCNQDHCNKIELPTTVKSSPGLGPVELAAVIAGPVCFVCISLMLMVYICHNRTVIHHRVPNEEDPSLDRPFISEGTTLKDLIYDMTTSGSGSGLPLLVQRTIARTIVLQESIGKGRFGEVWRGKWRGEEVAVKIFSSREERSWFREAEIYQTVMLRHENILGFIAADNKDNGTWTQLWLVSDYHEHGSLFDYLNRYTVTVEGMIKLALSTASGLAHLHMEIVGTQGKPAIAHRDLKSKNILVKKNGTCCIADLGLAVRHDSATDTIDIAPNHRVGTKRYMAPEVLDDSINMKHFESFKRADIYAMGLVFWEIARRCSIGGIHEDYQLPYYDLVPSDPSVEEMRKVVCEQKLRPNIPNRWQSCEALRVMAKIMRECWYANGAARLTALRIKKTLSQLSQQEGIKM
Chain of AP-3 complex subunit sigma-1 (Homo sapiens) (Q92572 whole entry, one chain of several): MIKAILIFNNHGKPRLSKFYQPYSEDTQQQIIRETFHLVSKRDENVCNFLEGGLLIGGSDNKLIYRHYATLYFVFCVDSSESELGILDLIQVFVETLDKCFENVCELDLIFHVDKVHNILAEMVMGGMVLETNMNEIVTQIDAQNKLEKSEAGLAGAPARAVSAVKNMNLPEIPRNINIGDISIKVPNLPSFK

In the case of `Cc1ccc(C(=O)Nc2cccc(C(F)(F)F)c2)cc1Nc1nc(-c2cccnc2)nc2c1cnn2C`, the IC50 (Ephrin type-B receptor 3) is reported as 0.006 µM, the ED50 [1] is reported as 7.09 µM and the ED50 [2] is reported as 116 µM. For the same compound, the ED50 [3] was 2.38 µM, the ED50 [4] was 8680 µM and the ED50 [5] was 0.0206 µM. The ED50 [6] was 0.0171 µM, the ED50 [7] was 0.536 µM and the ED50 [8] was 3.01 µM. The ED50 [9] was 4930 µM, the ED50 [10] was 0.0148 µM and the ED50 [11] was 0.114 µM. It also gave an ED50 [12] of 0.449 µM, an ED50 (Erlin-1 (Homo sapiens)) of 0.367 µM and an ED50 [13] of 2.7 µM. For the same compound, the ED50 [14] was 0.0377 µM, the ED50 [15] was 29.6 µM and the ED50 [16] was 0.00363 µM. For the same compound, the ED50 [17] was 0.0564 µM, the ED50 [18] was 32000 µM and the ED50 [19] was 0.109 µM. The ED50 [20] was 7.33 µM, the ED50 [21] was 9.93 µM and the ED50 [22] was 3.76 µM. The ED50 [23] was 13.9 µM, the ED50 [24] was 9.68 µM and the ED50 [25] was 0.000102 µM. The ED50 (Homo sapiens [26]) was 0.0833 µM, the ED50 [27] was 0.0969 µM and the ED50 [28] was 13.2 µM. The ED50 [29] was 12900 µM, the ED50 [30] was 0.0134 µM and the ED50 [31] was 4.04 µM. For the same compound, the ED50 (Homo sapiens [32]) was 3.75 µM, the ED50 [33] was 7.62 µM and the ED50 [34] was 0.735 µM. It also gave an ED50 [35] of 3.06 µM, an ED50 [36] of 0.0482 µM and an ED50 [37] of 2.19 µM. For the same compound, the ED50 [38] was 2.22 µM, the ED50 [39] was 5.62 µM and the ED50 [40] was 1.61 µM. It also gave an ED50 [41] of 0.00459 µM, an ED50 [42] of 0.000384 µM and an ED50 [43] of 101 µM. It also gave an ED50 [44] of 47.7 µM.

In the case of `Cc1ccc(C(=O)Nc2cccc(C(F)(F)F)c2)cc1Nc1nc(-c2cccnc2)nc2nn(C)cc12`, the IC50 (Ephrin type-B receptor 3) is reported as 0.191 µM, the ED50 [1] is reported as 0.0135 µM and the ED50 [2] is reported as 2.47 µM. The ED50 [3] was 8.38 µM, the ED50 [4] was 1.99 µM and the ED50 [5] was 0.002 µM. For the same compound, the ED50 [6] was 0.291 µM, the ED50 [7] was 9.4 µM and the ED50 [8] was 0.00683 µM. For the same compound, the ED50 [9] was 3.27 µM, the ED50 [10] was 0.0123 µM and the ED50 [11] was 0.213 µM. For the same compound, the ED50 [12] was 0.0001 µM, the ED50 (Erlin-1 (Homo sapiens)) was 0.00442 µM and the ED50 [13] was 1.71 µM. It also gave an ED50 [14] of 0.107 µM, an ED50 [15] of 0.495 µM and an ED50 [16] of 0.0885 µM. For the same compound, the ED50 [17] was 0.184 µM, the ED50 [18] was 0.175 µM and the ED50 [19] was 0.051 µM. It also gave an ED50 [20] of 0.00566 µM, an ED50 [21] of 0.0814 µM and an ED50 [22] of 0.655 µM. The ED50 [23] was 0.00552 µM, the ED50 [24] was 25.1 µM and the ED50 [25] was 10 µM. The ED50 (Homo sapiens [26]) was 21400 µM, the ED50 [27] was 0.0506 µM and the ED50 [28] was 0.0591 µM. For the same compound, the ED50 [29] was 0.0643 µM, the ED50 [30] was 0.0135 µM and the ED50 [31] was 22.5 µM. It also gave an ED50 (Homo sapiens [32]) of 0.285 µM, an ED50 [33] of 1.79 µM and an ED50 [34] of 20400 µM. The ED50 [35] was 30.9 µM, the ED50 [36] was 2.98 µM and the ED50 [37] was 0.122 µM. The ED50 [38] was 1.19 µM, the ED50 [39] was 0.0113 µM and the ED50 [40] was 0.0908 µM. The ED50 [41] was 0.00542 µM, the ED50 [42] was 0.029 µM and the ED50 [43] was 75 µM. The ED50 [44] was 0.291 µM.
